Laboratory results from ChEMBL document CHEMBL4765296, “Purine/purine isoster based scaffolds as new derivatives of benzamide class of HDAC inhibitors” (Eur J Med Chem, 2020).
Activity calls are given as the source filed them. No cut-off for these calls is given here.

How the values were obtained:
MDA-MB-231 [1] = test: Induction of apoptosis in human MDA-MB-231 cells assessed as increase in cleaved caspase-8 level incubated for 24 hrs by Western blot analysis; type: functional, cell-based
HepG2 = test: cells; conditions: Homo sapiens, HepG2, 72 h
Description: Antiproliferative activity against human HepG2 cells assessed as cell growth inhibition measured after 72 hrs by MTT assay

MCF7 = test: Cytotoxicity in human MCF7 cells assessed as reduction in cell viability incubated for 72 hrs by MTT assay; type: functional, cell-based
MDA-MB-468 = test: Cytotoxicity in human MDA-MB-468 cells assessed as reduction in cell viability incubated for 72 hrs by MTT assay; type: functional, cell-based
MDA-MB-231 [2] = test: Induction of cell cycle arrest in human MDA-MB-231 cells assessed as reduction in population at S phase at 4 uM for 24 hrs by PI staining based flow cytometry analysis; type: functional
[3] = Cytotoxicity against human HDACi-sensitive YCC3 cells assessed as reduction in cell growth incubated for 72 hrs by MTS assay; type: functional, cell-based; conditions: YCC3/7, 72 h
MDA-MB-231 [4] = test: Induction of cell cycle arrest in human MDA-MB-231 cells assessed as reduction in population between G1 to G2/M phases at 4 uM for 24 hrs by PI staining based flow cytometry analysis; type: functional
MDA-MB-231 [5] = test: Induction of cell cycle arrest in human MDA-MB-231 cells assessed as accumulation of cells at G1 phase at 4 uM for 24 hrs in presence of nocodazole by PI staining based flow cytometry analysis; type: functional
MDA-MB-231 [6] = test: Induction of apoptosis in human MDA-MB-231 cells assessed as increase in cleaved PARP-1 level incubated for 24 hrs by Western blot analysis; type: functional, cell-based
MDA-MB-231 [7] = test: Induction of cell cycle arrest in human MDA-MB-231 cells assessed as accumulation of cells at subG1 phase at 16 uM for 48 hrs by PI staining based flow cytometry analysis; type: functional
MDA-MB-231 [8] = test: Induction of apoptosis in human MDA-MB-231 cells assessed as increase in cleaved caspase-3 level incubated for 24 hrs by Western blot analysis; type: functional, cell-based
MDA-MB-231 [9] = test: Antiproliferative activity against human MDA-MB-231 cells assessed as cell growth inhibition measured after 72 hrs by MTT assay; type: functional, cell-based; conditions: MDA-MB-231, 72 h
cells = conditions: Homo sapiens, YCC-11, 72 h
Description: Cytotoxicity against human HDACi-sensitive YCC-11 cells assessed as reduction in cell growth incubated for 72 hrs by MTS assay

Histone deacetylase 9 = Histone deacetylase 9 (Homo sapiens, UniProt Q9UKV0); test: Inhibition of human recombinant HDAC9 expressed in baculovirus using fluorogenic peptide p53 residues 379-382 (RHKK(Ac)AMC) as substrate by Fluorescence analysis
Sequence of Histone deacetylase 9 (Q9UKV0 whole entry, the tested form may be a part): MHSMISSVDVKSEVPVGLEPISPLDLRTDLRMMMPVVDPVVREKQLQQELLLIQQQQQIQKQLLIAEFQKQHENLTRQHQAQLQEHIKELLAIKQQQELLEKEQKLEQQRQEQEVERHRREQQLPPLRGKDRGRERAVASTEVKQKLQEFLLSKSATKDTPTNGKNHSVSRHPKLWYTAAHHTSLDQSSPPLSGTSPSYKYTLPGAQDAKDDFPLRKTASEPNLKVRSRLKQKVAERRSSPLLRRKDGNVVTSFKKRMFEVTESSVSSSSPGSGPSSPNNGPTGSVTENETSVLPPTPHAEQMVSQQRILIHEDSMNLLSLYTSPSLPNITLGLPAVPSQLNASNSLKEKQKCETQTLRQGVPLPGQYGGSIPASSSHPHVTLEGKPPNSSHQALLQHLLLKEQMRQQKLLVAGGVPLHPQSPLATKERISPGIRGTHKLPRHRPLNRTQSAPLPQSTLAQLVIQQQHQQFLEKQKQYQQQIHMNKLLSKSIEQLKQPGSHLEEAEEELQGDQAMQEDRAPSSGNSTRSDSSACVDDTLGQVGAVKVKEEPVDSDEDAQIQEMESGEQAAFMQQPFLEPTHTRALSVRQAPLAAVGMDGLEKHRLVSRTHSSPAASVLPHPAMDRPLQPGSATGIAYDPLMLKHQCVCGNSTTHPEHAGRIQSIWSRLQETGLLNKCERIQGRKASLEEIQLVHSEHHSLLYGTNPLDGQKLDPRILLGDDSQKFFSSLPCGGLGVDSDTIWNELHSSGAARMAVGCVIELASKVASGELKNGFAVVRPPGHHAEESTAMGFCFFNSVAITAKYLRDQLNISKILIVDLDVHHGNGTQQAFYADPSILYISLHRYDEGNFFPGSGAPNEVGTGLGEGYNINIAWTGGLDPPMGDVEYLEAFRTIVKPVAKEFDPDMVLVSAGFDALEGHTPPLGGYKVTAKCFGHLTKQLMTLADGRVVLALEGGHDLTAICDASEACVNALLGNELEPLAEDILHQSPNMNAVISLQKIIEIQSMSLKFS

Histone deacetylase 4 = Histone deacetylase 4 (Homo sapiens, UniProt P56524); test: Inhibition of human recombinant HDAC4 expressed in baculovirus using fluorogenic peptide p53 residues 379-382 (RHKK(Ac)AMC) as substrate by Fluorescence analysis
Sequence of Histone deacetylase 4 (P56524 whole entry, the tested form may be a part): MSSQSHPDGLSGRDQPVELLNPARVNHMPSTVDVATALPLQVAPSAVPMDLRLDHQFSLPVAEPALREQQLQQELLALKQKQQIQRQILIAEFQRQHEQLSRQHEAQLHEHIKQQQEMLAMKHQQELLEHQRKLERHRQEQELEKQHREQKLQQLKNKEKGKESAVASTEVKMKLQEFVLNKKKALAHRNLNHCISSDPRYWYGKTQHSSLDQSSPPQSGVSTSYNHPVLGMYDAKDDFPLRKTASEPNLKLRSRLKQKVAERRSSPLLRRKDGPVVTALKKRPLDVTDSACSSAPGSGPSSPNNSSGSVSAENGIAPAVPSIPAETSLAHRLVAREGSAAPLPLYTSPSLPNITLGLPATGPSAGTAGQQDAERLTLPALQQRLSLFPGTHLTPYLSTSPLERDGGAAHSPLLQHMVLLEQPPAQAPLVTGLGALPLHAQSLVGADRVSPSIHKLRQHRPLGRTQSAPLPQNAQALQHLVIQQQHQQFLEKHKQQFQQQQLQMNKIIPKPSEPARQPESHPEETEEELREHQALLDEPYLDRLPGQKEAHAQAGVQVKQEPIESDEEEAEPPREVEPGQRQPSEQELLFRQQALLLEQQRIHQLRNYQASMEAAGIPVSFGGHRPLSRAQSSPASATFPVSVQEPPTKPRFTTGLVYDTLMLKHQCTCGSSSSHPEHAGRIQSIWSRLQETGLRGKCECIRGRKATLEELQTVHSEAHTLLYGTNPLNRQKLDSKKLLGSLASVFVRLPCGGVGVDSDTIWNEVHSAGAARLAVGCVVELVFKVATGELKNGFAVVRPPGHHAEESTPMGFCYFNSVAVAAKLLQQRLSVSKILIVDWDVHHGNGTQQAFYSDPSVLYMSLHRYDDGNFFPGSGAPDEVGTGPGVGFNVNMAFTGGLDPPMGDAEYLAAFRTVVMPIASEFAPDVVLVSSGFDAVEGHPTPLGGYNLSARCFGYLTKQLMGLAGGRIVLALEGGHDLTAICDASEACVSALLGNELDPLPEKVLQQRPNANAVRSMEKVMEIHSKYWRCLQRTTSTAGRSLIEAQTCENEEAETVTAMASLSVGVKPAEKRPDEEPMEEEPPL

Histone deacetylase 7 = target: T1, Histone deacetylase 7 (Homo sapiens, UniProt Q8WUI4); test: Inhibition of human recombinant HDAC7 expressed in baculovirus using fluorogenic peptide p53 residues 379-382 (RHKK(Ac)AMC) as substrate by Fluorescence analysis
T1 sequence (Q8WUI4 whole entry): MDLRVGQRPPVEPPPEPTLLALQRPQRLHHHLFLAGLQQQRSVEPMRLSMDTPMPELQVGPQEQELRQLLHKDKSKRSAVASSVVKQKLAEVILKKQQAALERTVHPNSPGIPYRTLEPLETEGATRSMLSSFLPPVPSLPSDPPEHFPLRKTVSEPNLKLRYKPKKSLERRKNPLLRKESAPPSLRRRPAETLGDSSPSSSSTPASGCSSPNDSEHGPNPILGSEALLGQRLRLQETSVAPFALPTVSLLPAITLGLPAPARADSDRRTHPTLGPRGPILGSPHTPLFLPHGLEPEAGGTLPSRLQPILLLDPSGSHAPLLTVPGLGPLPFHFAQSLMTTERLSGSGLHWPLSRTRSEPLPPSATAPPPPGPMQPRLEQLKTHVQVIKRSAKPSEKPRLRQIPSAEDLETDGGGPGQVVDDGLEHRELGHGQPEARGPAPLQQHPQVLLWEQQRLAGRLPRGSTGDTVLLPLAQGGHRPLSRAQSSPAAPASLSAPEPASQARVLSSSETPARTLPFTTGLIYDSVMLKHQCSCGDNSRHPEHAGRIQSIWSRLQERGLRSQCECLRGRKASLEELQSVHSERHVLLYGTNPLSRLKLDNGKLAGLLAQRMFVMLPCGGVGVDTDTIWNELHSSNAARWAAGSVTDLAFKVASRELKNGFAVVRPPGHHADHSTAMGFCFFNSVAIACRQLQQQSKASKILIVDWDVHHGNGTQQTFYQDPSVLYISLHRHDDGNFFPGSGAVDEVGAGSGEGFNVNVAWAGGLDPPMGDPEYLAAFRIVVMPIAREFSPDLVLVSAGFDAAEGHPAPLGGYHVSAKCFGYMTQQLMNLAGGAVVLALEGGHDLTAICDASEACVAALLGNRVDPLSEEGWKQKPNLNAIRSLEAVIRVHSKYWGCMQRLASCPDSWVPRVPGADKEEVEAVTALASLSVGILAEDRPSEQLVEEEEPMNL

Histone deacetylase 5 = Histone deacetylase 5 (Homo sapiens, UniProt Q9UQL6); test: Inhibition of human recombinant HDAC5 expressed in baculovirus using fluorogenic peptide p53 residues 379-382 (RHKK(Ac)AMC) as substrate by Fluorescence analysis
Sequence of Histone deacetylase 5 (Q9UQL6 whole entry, the tested form may be a part): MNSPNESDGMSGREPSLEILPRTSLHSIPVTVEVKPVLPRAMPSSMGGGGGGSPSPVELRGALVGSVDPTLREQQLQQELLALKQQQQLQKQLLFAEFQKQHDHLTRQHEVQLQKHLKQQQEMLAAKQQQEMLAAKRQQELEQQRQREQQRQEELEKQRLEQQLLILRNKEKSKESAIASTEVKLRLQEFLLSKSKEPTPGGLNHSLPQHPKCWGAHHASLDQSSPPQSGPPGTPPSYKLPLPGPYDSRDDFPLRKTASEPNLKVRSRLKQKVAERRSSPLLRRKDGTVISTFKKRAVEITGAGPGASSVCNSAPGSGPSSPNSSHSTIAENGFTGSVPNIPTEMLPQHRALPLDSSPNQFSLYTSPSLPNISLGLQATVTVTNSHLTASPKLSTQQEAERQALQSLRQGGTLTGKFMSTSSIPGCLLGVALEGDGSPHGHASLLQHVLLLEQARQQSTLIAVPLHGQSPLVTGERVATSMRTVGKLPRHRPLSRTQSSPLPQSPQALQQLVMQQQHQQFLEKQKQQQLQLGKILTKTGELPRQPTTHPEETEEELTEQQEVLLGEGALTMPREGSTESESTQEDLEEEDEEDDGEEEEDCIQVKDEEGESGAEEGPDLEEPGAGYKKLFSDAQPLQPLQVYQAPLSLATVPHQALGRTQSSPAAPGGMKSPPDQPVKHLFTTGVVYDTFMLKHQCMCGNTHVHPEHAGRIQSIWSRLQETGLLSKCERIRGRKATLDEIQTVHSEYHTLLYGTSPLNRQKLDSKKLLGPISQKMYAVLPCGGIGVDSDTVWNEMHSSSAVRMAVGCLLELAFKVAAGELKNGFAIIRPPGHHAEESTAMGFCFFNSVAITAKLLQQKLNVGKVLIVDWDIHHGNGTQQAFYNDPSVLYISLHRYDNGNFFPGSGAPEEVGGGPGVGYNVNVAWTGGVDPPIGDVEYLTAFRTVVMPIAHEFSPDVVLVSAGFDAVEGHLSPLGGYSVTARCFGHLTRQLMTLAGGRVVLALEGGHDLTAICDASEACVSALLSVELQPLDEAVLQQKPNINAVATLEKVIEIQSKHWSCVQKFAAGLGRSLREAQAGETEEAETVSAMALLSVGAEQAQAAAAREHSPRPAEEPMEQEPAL

IC50 (HepG2) [µM]	IC50 (MDA-MB-231 [9]) [µM]	IC50 (cells) [µM]	IC50 (Histone deacetylase 9) [µM]	IC50 (Histone deacetylase 4) [µM]	IC50 (Histone deacetylase 7) [µM]	IC50 (Histone deacetylase 5) [µM]	Compound	Activity (MDA-MB-231 [1])	Activity (MCF7)	Activity (MDA-MB-468)	Activity (MDA-MB-231 [2])	IC50 [3] [µM]	Activity (MDA-MB-231 [4])	Activity (MDA-MB-231 [5])	Activity (MDA-MB-231 [6])	Activity (MDA-MB-231 [7])	Activity (MDA-MB-231 [8])
4.54							Nc1ccccc1NC(=O)c1ccc(CNC(=O)OCc2cccnc2)cc1 [ENTINOSTAT]	Active	Active	Active	Active	13	Active	Active	Active	Active	Active
> 8	3.6	17.1					Nc1ccc(F)cc1NC(=O)c1ccc(CNC(=O)/C=C/c2cccnc2)cc1		Active	Active		20.4					
			> 10	> 10	> 10	> 10	Nc1nc(Nc2ccc(F)c(Cl)c2)c2ncn(Cc3ccc(C(=O)Nc4ccccc4N)cc3)c2n1										
